Laboratory results reported in ChEMBL document CHEMBL1201862, “PubChem BioAssay data set” (2004).
Active and inactive are the calls of the source.

Legend:
[1] = molecular target: T1, Tyrosine-protein phosphatase non-receptor type 7 (Homo sapiens, UniProt P35236); test: redox-active compounds inhibiting HePTP phosphatase – biochemical, fluorescence, mechanism study (AID 2068); assay type: functional
T1 sequence (P35236 whole entry): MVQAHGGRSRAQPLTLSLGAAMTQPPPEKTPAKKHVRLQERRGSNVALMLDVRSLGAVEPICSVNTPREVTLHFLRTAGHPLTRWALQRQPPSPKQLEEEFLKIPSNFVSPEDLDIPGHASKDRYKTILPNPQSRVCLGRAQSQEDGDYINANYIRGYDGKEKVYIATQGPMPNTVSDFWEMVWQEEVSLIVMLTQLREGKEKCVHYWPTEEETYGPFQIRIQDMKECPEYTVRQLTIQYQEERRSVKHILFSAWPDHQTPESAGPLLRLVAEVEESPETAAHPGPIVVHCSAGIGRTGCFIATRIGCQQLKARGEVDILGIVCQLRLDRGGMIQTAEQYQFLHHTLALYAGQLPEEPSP

[2] = molecular target: T2, Dual specificity protein phosphatase 3 (Homo sapiens, UniProt P51452); test: SAR VHR1 Fluorescent Assay for In Vitro dose response studies. [Related pubchem assays (depositor defined):AID1654, AID1661, AID1878, AID1992, AID2004, AID2070, AID2085]; assay type: functional
T2 sequence (P51452 whole entry): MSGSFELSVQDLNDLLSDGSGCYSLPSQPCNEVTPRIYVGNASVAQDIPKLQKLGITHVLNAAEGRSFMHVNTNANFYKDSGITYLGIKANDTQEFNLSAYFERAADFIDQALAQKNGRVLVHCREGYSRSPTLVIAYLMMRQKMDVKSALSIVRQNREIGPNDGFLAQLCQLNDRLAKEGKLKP

[3] = molecular target: T1, Tyrosine-protein phosphatase non-receptor type 7; assay type: functional
[4] = molecular target: T2, Dual specificity protein phosphatase 3; test: MOA VHR1 Fluorescent secondary assay for identification of redox-state modulating compounds. [Related pubchem assays (depositor defined):AID1654, AID1661, AID1878, AID1957]
[5] = molecular target: T3, Dual specificity protein phosphatase 6 (Rattus norvegicus, UniProt Q64346)
T3 sequence (Q64346 whole entry): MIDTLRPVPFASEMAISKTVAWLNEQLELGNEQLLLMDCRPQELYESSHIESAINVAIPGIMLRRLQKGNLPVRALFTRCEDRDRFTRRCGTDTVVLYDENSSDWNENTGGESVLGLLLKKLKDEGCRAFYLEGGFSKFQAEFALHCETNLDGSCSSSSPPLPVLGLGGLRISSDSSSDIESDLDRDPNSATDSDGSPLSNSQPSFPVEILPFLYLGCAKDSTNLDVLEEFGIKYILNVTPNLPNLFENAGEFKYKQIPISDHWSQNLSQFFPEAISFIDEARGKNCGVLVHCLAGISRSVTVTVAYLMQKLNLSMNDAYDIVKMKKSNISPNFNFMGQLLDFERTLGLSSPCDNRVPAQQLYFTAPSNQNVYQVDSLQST

[6] = molecular target: Glyceraldehyde-3-phosphate dehydrogenase (Homo sapiens, UniProt P04406)
Glyceraldehyde-3-phosphate dehydrogenase, sequence (P04406 whole entry): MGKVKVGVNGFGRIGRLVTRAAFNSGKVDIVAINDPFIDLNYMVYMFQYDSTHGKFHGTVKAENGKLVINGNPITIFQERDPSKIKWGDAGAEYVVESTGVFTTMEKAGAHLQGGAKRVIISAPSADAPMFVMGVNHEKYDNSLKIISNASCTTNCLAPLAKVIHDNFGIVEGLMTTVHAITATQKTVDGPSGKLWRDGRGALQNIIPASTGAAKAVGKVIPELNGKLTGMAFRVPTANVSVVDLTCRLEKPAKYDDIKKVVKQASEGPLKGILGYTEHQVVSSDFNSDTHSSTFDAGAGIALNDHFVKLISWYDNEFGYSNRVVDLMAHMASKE

[7] = molecular target: T3, Dual specificity protein phosphatase 6; assay type: functional
[8] = Vero E6 cell cytotoxicity, dose response, cytotoxicity control for non-replicating M. tuberculosis project, secondary assay (AID 492998); assay type: functional, VeroE6; conditions: Vero C1008
[9] = non-specific 3'UTR reporter inhibition in Clone20-Shn3RL – cell-based, Renilla luciferase, cherry-picked, counter-screen for Shn3 inhibitor project, dose response (AID 624133); assay type: functional
Nonstructural protein 1 = Nonstructural protein 1 (Influenza A virus, UniProt Q194T2); assay type: functional, Influenza A virus (A/California/07/2009(H1N1))
Nonstructural protein 1, sequence (Q194T2 whole entry): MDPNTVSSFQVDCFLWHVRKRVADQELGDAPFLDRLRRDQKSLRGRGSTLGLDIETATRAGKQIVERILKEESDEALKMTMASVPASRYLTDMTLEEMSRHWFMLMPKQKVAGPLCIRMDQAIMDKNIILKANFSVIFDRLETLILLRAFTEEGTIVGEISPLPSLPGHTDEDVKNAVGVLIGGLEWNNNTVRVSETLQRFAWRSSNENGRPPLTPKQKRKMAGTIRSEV

[10] = loss of viability in HepG2 cells – cell-based, CellTiter-Glo, cherry-picked, cytotoxicity control for Shn3 inhibitor project, dose response (AID 624134); assay type: functional
cells = assay type: functional
Paired box protein Pax-8 = Paired box protein Pax-8 (Homo sapiens, UniProt Q06710); test: PAX8 transcriptional activity inhibition in RMG-I – RMG-I cells, luciferase, cherry-pick, dose response (AID 687027); assay type: functional, cell-based;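 note: luciferase reporter driven by Pax8 target thyroperoxidase promoter measured by SteadyGlo luminescence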
Paired box protein Pax-8, sequence (Q06710 whole entry): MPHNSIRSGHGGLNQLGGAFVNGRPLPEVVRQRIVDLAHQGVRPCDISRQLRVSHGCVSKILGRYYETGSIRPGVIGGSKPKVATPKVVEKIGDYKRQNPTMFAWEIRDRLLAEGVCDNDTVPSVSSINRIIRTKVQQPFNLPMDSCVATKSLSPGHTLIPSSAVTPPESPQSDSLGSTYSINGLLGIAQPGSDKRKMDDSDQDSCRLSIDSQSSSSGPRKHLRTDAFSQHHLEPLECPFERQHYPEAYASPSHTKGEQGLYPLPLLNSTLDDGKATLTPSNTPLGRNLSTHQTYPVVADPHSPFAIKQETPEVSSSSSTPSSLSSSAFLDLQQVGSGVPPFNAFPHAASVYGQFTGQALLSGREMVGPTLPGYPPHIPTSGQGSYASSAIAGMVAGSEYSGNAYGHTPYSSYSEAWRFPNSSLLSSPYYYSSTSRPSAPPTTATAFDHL

[11] = THP-1 cell cytotoxicity, dose response, cytotoxicity control for non-replicating M. tuberculosis project (AID 489025); assay type: functional
[12] = reduction of Shn3 3'UTR-driven luciferase in osteoblasts – cell-based, Clone20 osteoblasts, firefly luciferase, cherry-picked, dose response (AID 624132); assay type: functional;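 note: firefly luciferase luminescence from reporter carrying the Shn3 3'UTR in osteoblasts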
[13] = HepG2 cell cytotoxicity, dose response, cytotoxicity control for non-replicating M. tuberculosis project (AID 489018); assay type: functional; conditions: Mycobacterium tuberculosis
[14] = molecular target: Potassium voltage-gated channel subfamily KQT member 2 (Rattus norvegicus, UniProt O88943); test: potentiation of rat KCNQ2 current – cell-based, retigabine-insensitive compounds, dose response (AID 2654); assay type: functional
Potassium voltage-gated channel subfamily KQT member 2, sequence (O88943 whole entry): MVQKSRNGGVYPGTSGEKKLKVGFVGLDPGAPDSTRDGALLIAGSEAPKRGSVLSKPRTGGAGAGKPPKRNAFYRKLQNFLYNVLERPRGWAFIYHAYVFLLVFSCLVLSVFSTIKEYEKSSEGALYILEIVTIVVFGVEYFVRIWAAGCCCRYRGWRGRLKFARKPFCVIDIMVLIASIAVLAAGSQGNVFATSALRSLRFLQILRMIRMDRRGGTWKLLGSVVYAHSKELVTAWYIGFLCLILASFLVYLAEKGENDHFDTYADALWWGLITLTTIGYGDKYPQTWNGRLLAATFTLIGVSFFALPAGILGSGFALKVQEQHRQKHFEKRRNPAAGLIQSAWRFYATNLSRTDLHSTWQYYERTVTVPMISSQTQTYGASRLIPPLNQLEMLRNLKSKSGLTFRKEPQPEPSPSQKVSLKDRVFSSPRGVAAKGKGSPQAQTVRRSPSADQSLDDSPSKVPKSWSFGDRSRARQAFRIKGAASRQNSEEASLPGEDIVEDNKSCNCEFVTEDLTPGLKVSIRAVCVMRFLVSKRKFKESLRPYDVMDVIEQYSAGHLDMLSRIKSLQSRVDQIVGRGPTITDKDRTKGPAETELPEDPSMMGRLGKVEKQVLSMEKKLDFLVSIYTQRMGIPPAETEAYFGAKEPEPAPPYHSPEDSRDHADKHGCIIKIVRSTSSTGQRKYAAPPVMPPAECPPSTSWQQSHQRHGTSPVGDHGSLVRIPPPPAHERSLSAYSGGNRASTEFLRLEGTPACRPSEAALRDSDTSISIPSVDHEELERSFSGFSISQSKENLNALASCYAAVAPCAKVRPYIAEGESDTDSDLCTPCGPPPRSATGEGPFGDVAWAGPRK

[15] = Luminescence Cell-Based Dose Confirmation HTS to Identify Inhibitors of Platelet Dense Granule Release. [Related pubchem assays: 1663 (Primary HTS), 1678 (Summary of Project)]; assay type: functional
ORF 73 = ORF 73 (Human herpesvirus 8, UniProt O40947); test: KSHV LANA DNA-binding disruption – biochemical, fluorescence polarization, cherry-picked samples, dose response (AID 504725); design: species or system Human gammaherpesvirus 8;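 note: fluorescence polarization of a labeled DNA duplex reporting LANA DNA binding; potency is for inhibitors that block LANA binding to the DNA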
ORF 73, sequence (O40947 whole entry): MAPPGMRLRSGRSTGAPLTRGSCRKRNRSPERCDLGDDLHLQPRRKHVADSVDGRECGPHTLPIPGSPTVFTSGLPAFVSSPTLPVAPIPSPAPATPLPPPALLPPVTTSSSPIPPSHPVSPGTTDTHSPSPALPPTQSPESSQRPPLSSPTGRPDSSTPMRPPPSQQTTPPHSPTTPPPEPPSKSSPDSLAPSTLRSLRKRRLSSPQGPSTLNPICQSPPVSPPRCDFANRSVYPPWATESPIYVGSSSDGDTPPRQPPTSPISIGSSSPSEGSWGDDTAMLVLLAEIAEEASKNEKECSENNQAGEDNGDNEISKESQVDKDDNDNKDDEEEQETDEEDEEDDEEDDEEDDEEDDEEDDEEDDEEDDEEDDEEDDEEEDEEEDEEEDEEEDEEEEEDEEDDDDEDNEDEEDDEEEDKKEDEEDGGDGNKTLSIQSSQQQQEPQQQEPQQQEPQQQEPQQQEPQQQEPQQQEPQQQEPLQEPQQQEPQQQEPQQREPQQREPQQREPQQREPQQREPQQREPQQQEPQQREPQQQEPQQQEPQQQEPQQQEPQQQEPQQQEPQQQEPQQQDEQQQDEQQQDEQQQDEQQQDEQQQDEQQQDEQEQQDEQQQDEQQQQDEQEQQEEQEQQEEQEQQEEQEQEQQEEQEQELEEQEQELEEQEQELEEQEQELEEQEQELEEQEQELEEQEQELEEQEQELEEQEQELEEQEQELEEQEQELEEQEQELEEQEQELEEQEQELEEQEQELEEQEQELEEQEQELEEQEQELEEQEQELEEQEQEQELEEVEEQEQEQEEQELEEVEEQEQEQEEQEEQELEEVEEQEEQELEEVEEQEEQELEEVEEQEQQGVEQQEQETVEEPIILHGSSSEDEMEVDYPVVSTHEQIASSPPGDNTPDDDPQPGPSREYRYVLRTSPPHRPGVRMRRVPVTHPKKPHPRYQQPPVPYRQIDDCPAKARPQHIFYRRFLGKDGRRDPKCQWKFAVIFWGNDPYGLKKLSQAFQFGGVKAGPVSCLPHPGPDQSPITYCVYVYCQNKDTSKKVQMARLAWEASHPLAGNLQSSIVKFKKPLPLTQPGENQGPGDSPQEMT

[16] = molecular target: Luciferin 4-monooxygenase (Photinus pyralis, UniProt P08659); test: inhibition of purified Photinus pyralis luciferase – biochemical, luminescence, dose response (AID 1891)
Luciferin 4-monooxygenase, sequence (P08659 whole entry): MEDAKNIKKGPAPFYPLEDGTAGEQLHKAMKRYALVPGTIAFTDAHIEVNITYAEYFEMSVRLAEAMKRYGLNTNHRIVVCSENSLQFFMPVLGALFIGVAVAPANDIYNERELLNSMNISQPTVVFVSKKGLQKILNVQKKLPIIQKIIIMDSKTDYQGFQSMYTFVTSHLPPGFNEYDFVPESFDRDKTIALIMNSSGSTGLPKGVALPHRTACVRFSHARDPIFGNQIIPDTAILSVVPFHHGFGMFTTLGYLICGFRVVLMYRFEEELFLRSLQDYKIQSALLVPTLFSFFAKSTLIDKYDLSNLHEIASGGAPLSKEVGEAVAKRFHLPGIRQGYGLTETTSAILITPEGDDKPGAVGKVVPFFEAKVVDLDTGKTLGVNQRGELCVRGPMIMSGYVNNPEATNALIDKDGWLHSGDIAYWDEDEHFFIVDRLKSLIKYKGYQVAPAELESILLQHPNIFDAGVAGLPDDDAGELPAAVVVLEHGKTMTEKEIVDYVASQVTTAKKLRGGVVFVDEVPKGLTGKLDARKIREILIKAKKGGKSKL

In the case of `O=c1/c(=C/c2ccccc2Cl)sc2nc3cc(Br)cnc3n12`, the IC50 [1] is reported as 0.18 µM (active), the IC50 [2] is reported as > 100 µM (inactive) and the IC50 [3] is reported as > 100 µM (not active). For the same compound, the IC50 [4] was 0.181 µM (active), the IC50 [5] was > 100 µM (inactive) and the IC50 [6] was > 100 µM (not active). The IC50 [7] was > 100 µM (inactive).

With `Oc1c(Cl)cc(CN2CCOCC2)c2cccnc12` the CC50 [8] was 7.79 µM (active), the AC50 [9] was 9.44 µM (active) and the IC50 (Nonstructural protein 1) was 5.97 µM (active). The AC50 [10] was 31.9 µM (active), the IC50 (cells) was 13.7 µM (active) and the AC50 (Paired box protein Pax-8) was 4.43 µM (active). The CC50 [11] was 5.75 µM (active), the AC50 [12] was 2.43 µM (active) and the CC50 [13] was 10.3 µM (active).

With `O=C(NCc1ccc(Cl)cc1Cl)Nc1ccccc1` the EC50 [14] was 2.22 µM (active).

For `COc1ccc(N(C(=O)c2ccc(Cl)cc2)C2=CC3CCC(C2)N3C)cc1` (stereo not given), the EC50 [15] was > 112 µM (not active), the AC50 (ORF 73) was 76.3 µM (active) and the EC50 [16] was > 112 µM (not active).
